Tests used:
[1] = tested on: C57BL/6J diabetic model mice; assay: Four blood lipid items in serum of treated mice (T-CHO, TG, HDL-C, LDL-C kits); type: in vivo, C57BL/6J mice; settings: subcutaneous rhCygb 5 mg/kg or exendin-4 50 μg/kg, after 28 d of treatment
Description: (§1) The AUC for blood glucose changes within two hours post-glucose gavage was shown in FIG. 5, confirming impaired glucose tolerance in the DM group. • 2) Successfully modeled mice were divided into three groups based on no statistical difference in blood glucose within groups and statistical difference in blood glucose between groups: wherein the three groups are rhCygb treatment group (5 mg/kg subcutaneous injection), exendin-4 treatment group (50 μg/kg subcutaneous injection), and placebo group (0.1 mL PBS subcutaneous injection) (grouping without re-caging, mice remained in original cages), respectively.
(§2) The mice of placebo group, rhCygb treatment group, and EX-4 treatment group received daily subcutaneous injections of PBS, rhCygb, or EX-4, respectively for 2 months (frequency adjusted based on survival status of mice). […] Absorbance at 510 nm was measured using a microplate reader. Cholesterol content was calculated according to the formula: […]
Serum from each treated C57BL/6J mouse was assayed using a total cholesterol assay kit. […] Absorbance at 510 nm was measured using a microplate reader. […] content was calculated according to the formula: […]
Serum from each treated C57BL/6J mouse was assayed using a triglyceride assay kit. […] Absorbance at 546 nm (A1) was measured using a microplate reader. […] Absorbance at 546 nm (A2) was measured again. […]

[2] = tested on: pancreatic tissue of C57BL/6J diabetic model mice; assay: H&E staining of pancreatic tissue sections; type: in vivo, C57BL/6J mice; settings: acinar cell steatosis, islet morphology, inflammation; FIGS. 12A-12D
Description: as §1, §2
The severity of lesions observed in the HE-stained pathological sections of each mouse was graded. This ordinal data was analyzed using the K Independent Samples non-parametric test in SPSS software, and the result indicated a statistically significant difference between groups. As SPSS lacks pairwise comparison for multiple independent samples, all data were ranked and converted into quantitative data, then subjected to one-way ANOVA.

Question: How did the total cholesterol levels ([1]; FIG. 8) turn out when Exendin-4 [reference compound] was run?
Answer: The total cholesterol levels was “statistically significant reduction in total cholesterol levels compared to the placebo group”.

Question: What about the LDL-C levels ([1]; FIG. 11) of the same substance?
Answer: Its LDL-C levels is “statistically significant reduction in LDL-C levels compared to the placebo group”.

Question: And the “pancreatic tissue morphology (H&E)” value [2]?
Answer: The value was “persistent acinar steatosis similar to the PBS group”.
